Key:
[1] = test system: experimental malignancies; conditions: in vivo; cited from earlier work
[2] = test system: GLS (Gardner lymphosarcoma); assay: Transplanted Gardner lymphosarcoma (GLS) tumor in mice; type: in vivo; conditions: for inhibitory activity orally / oral activity: orally
Description: (§1) The following table--Table 1--gives the results of several experiments in which mice bearing transplanted tumors were treated successfully with a compound of this invention. In the table, column 1 gives the name of the compound; column 2, the transplanted tumor; column 3, the dose level or dose level range and the number of days the dosage was administered; column 4, the route of administration, and column 5, the percent inhibition of tumor growth or percent prolongation of survival time, e.g., B16 and P388. (ROS is an abbreviation for Ridgeway osteogenic sarcoma; GLS for Gardner lymphosarcoma; P1534(J) and P388 are leukemias; CA 755 is an adenocarcinoma; and B16 is a melamoma).

[3] = test system: transplanted tumors; conditions: animals; cited from earlier work
[4] = test system: B16; assay: Transplanted B16 melanoma in mice, prolongation of survival time; type: in vivo; conditions: IP
Description: as §1

[5] = test system: CA755; assay: Transplanted CA755 adenocarcinoma in mice; type: in vivo; conditions: for inhibitory activity orally / oral activity: orally
Description: as §1

[6] = test system: P1534(J); assay: Transplanted P1534(J) leukemia in mice; type: in vivo
Description: as §1

[7] = test system: ROS (Ridgeway osteogenic sarcoma); assay: Transplanted Ridgeway osteogenic sarcoma (ROS) in mice; type: in vivo; conditions: for inhibitory activity orally / oral activity: orally
Description: as §1

[8] = test system: transplanted tumors; assay: Activity against transplanted tumors in mice in vivo (general); conditions: for dose level at which comparable tumor inhibition or prolongation of life is shown: parenterally, intraperitoneal route
Description: as §1

[9] = Toxicity at higher oral dose levels in experimental animals; type: in vivo; conditions: orally, above 2 (VLB) and 2-4.5 (vincristine) mg./kg.
[10] = test system: leukemias; conditions: human, in vivo; cited from earlier work
[11] = humans; cited from earlier work

## CCC1(O)CN2CCc3c([nH]c4ccccc34)C(C(=O)OC)(c3cc4c(cc3OC)N(C)C3C(O)(C(=O)OC)CC5(CC)C=CCN6CCC43C65)CC(C2)C1O (stereo not drawn) [4-desacetoxy-3'-hydroxyvinblastine]
[1]
  activity in the treatment of experimental malignancies in animals: active

## CCC1(O)CC2CN(CCc3c([nH]c4ccccc34)C(C(=O)OC)(c3cc4c(cc3OC)N(C)C3C(O)(C(=O)OC)CC5(CC)C=CCN6CCC43C65)C2)C1 (stereo not drawn) [4-desacetoxyvinblastine]
[1]
  activity in the treatment of experimental malignancies in animals: active

## CCC1(O)CC2CN(CCc3c([nH]c4ccccc34)C(C(=O)OC)(c3cc4c(cc3OC)N(C)C3C5(OC(=O)N(C)C5=O)C(OC(=O)NC)C5(CC)C=CCN6CCC43C65)C2)C1 (stereo not drawn) [4-desacetyl VLB 3"-methyl-3-spiro-5"-oxazolidine-2", 4"-dione-4-(N-methyl)carbamate]
[2]; 0.1-2.5 mg./kg. × 7-9 days, IP
  Percent Inhibition of tumor growth: 40-100%

## CCC1(O)CC2CN(CCc3c([nH]c4ccccc34)C(C(=O)OC)(c3cc4c(cc3OC)N(C)C3C5(OC(=O)N(C)C5=O)C(O)C5(CC)C=CCN6CCC43C65)C2)C1 (stereo not drawn) [4-desacetyl VLB 3"-methyl-3-spiro-5"-oxazolidone-2",4"-dione]
[2]; 2.5 mg./kg. × 7 days, IP
  Percent Inhibition of tumor growth: 27%

## CCC1(O)CC2CN(CCc3c([nH]c4ccccc34)C(C(=O)OC)(c3cc4c(cc3OC)N(C)C3C(O)(C(=O)NCCS)C(O)C5(CC)C=CCN6CCC43C65)C2)C1 (stereo not drawn) [C-3 N-(β-mercaptoethyl)carboxamide of 4-desacetyl VLB]
[3]
  anti-tumor activity: highly effective anti-tumor agent in mice

## CCC1(O)CC2CN(CCc3c([nH]c4ccccc34)C(C(=O)OC)(c3cc4c(cc3OC)N(C)C3C5(OC(=O)N(CCCl)C5=O)C(OC(C)=O)C5(CC)C=CCN6CCC43C65)C2)C1 (stereo not drawn) [VLB 3"-(β-chloroethyl)-3-spiro-5"-oxazolidine-2",4"-dione]
[2]; 0.65 mg./kg. × 10 days, IP
  Percent Inhibition of tumor growth: 47%
[2]; 0.5-0.6 mg./kg. × 9-10 days, IP
  Percent Inhibition of tumor growth: 50-74%
[2]; 3-4 mg./kg. × 9 days, PO
  Percent Inhibition of tumor growth: 92-100%
[2]; 3-6 mg./kg.
  inhibitory activity orally: 100%
[4]; 0.4-0.6 mg./kg. × 10 days
  Percent Prolongation of Survival Time: 25-178%
  indefinite survivors (survived for 60 days till end of trial): 5
[5]; 0.75-1.0 mg./kg. × 10 days, IP
  Percent Inhibition of tumor growth: 53%
[5]; 3-5 mg./kg. × 9-10 days, PO
  Percent Inhibition of tumor growth: 59-92%
[5]; 3-6 mg./kg.
  inhibitory activity orally: 100%
[6]; 3.5 mg./kg. × 8 days, PO
  Percent Inhibition or Prolongation of Survival Time: 100%
[6]; 0.4-0.6 mg./kg. × 10 days, IP
  Percent Inhibition or Prolongation of Survival Time: 61-86%
[7]; 3-6 mg./kg.
  inhibitory activity orally: 100%

## C=CCN1C(=O)OC2(C1=O)C(OC(C)=O)C1(CC)C=CCN3CCC4(c5cc(C6(C(=O)OC)CC7CN(CCc8c6[nH]c6ccccc86)CC(O)(CC)C7)c(OC)cc5N(C)C24)C31 (stereo not drawn) [VLB 3"-allyl-3-spiro-5"-oxazolidine-2",4"-dione]
[2]; 2.5 mg./kg. × 7 days, IP
  Percent Inhibition of tumor growth: 35%

## CCC1(O)CC2CN(CCc3c([nH]c4ccccc34)C(C(=O)OC)(c3cc4c(cc3OC)N(C)C3C5(OC(=O)N(C)C5=O)C(OC(C)=O)C5(CC)C=CCN6CCC43C65)C2)C1 (stereo not drawn) [VLB 3"-methyl-3-spiro-5"-oxazolidine-2",4"-dione]
[2]; 0.6 mg./kg. × 7 days, IP
  Percent Inhibition of tumor growth: 100%
[2]; 1.25 mg./kg. × 9 days, IP
  Percent Inhibition of tumor growth: 100%
[2]; 3-4 mg./kg. × 10 days, PO
  Percent Inhibition of tumor growth: 100%
[2]; 3-5 mg./kg. × 10 days, PO
  Percent Inhibition of tumor growth: 37-56%
[2]; 6-7 mg./kg.
  inhibitory activity orally: 100%
[4]; 4.5 mg./kg. × 10 days
  Percent Prolongation of Survival Time: 49-91%
[4]; 0.5-0.6 mg./kg. × 10 days
  indefinite survivors (survived for 60 days till end of trial): 3
[5]; 0.5-1.0 mg./kg. × 10 days, IP
  Percent Inhibition of tumor growth: 43-100%
[5]; 6-7 mg./kg.
  inhibitory activity orally: 100%
[6]; 3-4 mg./kg. × 8 days, PO
  Percent Inhibition or Prolongation of Survival Time: 100%
[6]; .5-.6 mg./kg. × 10 days, IP
  Percent Inhibition or Prolongation of Survival Time: 100%
[7]; 5-7 mg./kg. × 10 days, PO
  Percent Inhibition of tumor growth: 38-59%
[7]; 6-7 mg./kg.
  inhibitory activity orally: 100%

## CC[C@]1(O)C[C@@H]2CN(CCc3c([nH]c4ccccc34)[C@@](C(=O)OC)(c3cc4c(cc3OC)N(C)[C@H]3[C@@](O)(C(=O)OC)[C@H](OC(C)=O)[C@]5(CC)C=CCN6CC[C@]43[C@@H]65)C2)C1 [VLB, vincaleukoblastine]
[2]; 2 mg./kg.
  oral activity: only marginally active, if at all
[5]; 2 mg./kg.
  oral activity: only marginally active, if at all
[7]; 2 mg./kg.
  oral activity: only marginally active, if at all
[8]
  activity by the oral route: do not show this degree of oral activity
  dose level at which comparable tumor inhibition or prolongation of life is shown: 0.4 to 0.45 mg/kg
[9]
  toxicity at higher levels: usually are toxic at higher levels
[1]
  activity in the treatment of experimental malignancies in animals: active

## CCC1CC2CN(CCc3c([nH]c4ccccc34)C(C(=O)OC)(c3cc4c(cc3OC)N(C)C3C(O)(C(=O)OC)C(OC(C)=O)C5(CC)C=CCN6CCC43C65)C2)C1 (stereo not drawn) [deoxy VLB "A"]
[1]
  activity in the treatment of experimental malignancies in animals: active

## CCC1(O)CN2CCc3c([nH]c4ccccc34)C(C(=O)OC)(c3cc4c(cc3OC)N(C)C3C(O)(C(=O)OC)C(OC(C)=O)C5(CC)C=CCN6CCC43C65)CC(O)(C2)C1 (stereo not drawn) [leurocolombine]
[1]
  activity in the treatment of experimental malignancies in animals: active

## CCC12CN3CCc4c([nH]c5ccccc45)C(C(=O)OC)(c4cc5c(cc4OC)N(C=O)C4C(O)(C(=O)OC)C(OC(C)=O)C6(CC)C=CCN7CCC54C76)CC(C3)C1O2 (stereo not drawn) [leuroformine]
[1]
  activity in the treatment of experimental malignancies in animals: active

## CCC1(O)CC2CN(CCc3c([nH]c4ccccc34)C(C(=O)OC)(c3cc4c(cc3OC)N(C)C3C(O)(C(=O)OC)C(OC(C)=O)C5(CC)C=CCN6CCC43C65)C2)C1 (stereo not drawn) [leurosidine]
[1]
  activity in the treatment of experimental malignancies in animals: active

## CC[C@]12CN3CCc4c([nH]c5ccccc45)[C@@](C(=O)OC)(c4cc5c(cc4OC)N(C)[C@H]4[C@@](O)(C(=O)OC)[C@H](OC(C)=O)[C@]6(CC)C=CCN7CC[C@]54[C@@H]76)C[C@H](C3)[C@H]1O2 [leurosine]
[1]
  activity in the treatment of experimental malignancies in animals: active

## CCC1(O)CN2CCc3c([nH]c4ccccc34)C(C(=O)OC)(c3cc4c(cc3OC)N(C)C3C(O)(C(=O)OC)C(OC(C)=O)C5(CC)C=CCN6CCC43C65)CC(C2)C1O (stereo not drawn) [vincadioline]
[1]
  activity in the treatment of experimental malignancies in animals: active

## CCC1(O)CC2CN(CCc3c([nH]c4ccccc34)C(C(=O)OC)(c3cc4c(cc3OC)N(C=O)C3C5(OC(=O)N(C)C5=O)C(OC(C)=O)C5(CC)C=CCN6CCC43C65)C2)C1 (stereo not drawn) [vincristine 3"-methyl-3-spiro-5"-oxazolidone-2",4"-dione]
[2]; 1.0 mg./kg. × 7 days, IP
  Percent Inhibition of tumor growth: 61%

## CC[C@]1(O)C[C@H]2CN(CCc3c([nH]c4ccccc34)[C@@](C(=O)OC)(c3cc4c(cc3OC)N(C=O)[C@H]3[C@@](O)(C(=O)OC)[C@H](OC(C)=O)[C@]5(CC)C=CCN6CC[C@]43[C@@H]65)C2)C1 [vincristine, leurocristine]
[2]; 2-4.5 mg./kg.
  oral activity: only marginally active, if at all
[5]; 2-4.5 mg./kg.
  oral activity: only marginally active, if at all
[7]; 2-4.5 mg./kg.
  oral activity: only marginally active, if at all
[8]
  activity by the oral route: do not show this degree of oral activity
  dose level at which comparable tumor inhibition or prolongation of life is shown: 0.2 to 0.25 mg/kg
[9]
  toxicity at higher levels: usually are toxic at higher levels
[1]
  activity in the treatment of experimental malignancies in animals: active

## CC[C@]1(O)C[C@@H]2CN(CCc3c([nH]c4ccccc34)[C@@](C(=O)OC)(c3cc4c(cc3OC)N(C)[C@H]3[C@@](O)(C(N)=O)[C@H](O)[C@]5(CC)C=CCN6CC[C@]43[C@@H]65)C2)C1 [vindesine, 4-desacetyl VLB C-3 carboxamide]
[10]
  activity in leukemias in humans: active in certain leukemias
[11]
  neurotoxicity compared with vincristine: less neurotoxicity than does vincristine
